Biological target: T1, Ba/F3 cell lines stably expressing human FLT3-ITD-D835Y (Homo sapiens, UniProt P36888, D835Y, cells depend on it, form not given)
T1 construct: Ba/F3-FLT3-ITD-D835Y Relative IC50
T1 sequence (P36888 1-993 D835Y): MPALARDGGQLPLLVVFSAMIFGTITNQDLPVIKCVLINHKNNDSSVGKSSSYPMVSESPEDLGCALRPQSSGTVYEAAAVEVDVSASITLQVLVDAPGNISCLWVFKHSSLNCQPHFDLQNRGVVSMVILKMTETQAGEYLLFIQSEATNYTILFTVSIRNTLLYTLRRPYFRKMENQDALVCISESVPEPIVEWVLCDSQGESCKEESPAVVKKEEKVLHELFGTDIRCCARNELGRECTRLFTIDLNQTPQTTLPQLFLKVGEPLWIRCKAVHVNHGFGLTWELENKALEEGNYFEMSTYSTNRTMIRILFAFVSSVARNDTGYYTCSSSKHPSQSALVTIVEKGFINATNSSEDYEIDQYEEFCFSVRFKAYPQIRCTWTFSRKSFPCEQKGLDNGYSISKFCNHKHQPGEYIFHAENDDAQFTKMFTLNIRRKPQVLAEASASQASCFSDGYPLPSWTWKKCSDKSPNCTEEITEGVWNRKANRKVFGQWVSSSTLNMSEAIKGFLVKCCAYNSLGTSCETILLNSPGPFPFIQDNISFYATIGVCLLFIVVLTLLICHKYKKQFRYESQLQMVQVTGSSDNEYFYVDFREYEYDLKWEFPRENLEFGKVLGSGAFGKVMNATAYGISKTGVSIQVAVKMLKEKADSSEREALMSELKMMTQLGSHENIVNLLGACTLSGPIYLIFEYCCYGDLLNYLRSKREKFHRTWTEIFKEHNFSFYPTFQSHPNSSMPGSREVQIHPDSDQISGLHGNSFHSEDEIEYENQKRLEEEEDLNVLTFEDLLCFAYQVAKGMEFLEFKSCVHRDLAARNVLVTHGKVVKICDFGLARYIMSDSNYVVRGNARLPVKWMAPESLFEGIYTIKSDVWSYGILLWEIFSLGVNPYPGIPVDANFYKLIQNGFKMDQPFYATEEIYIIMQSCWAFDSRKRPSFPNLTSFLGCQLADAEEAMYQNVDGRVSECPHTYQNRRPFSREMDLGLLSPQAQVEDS
Assay: FLT3 mutant assay, cell viability, Ba/F3-FLT3-ITD-D835Y
Format: cell-based, mouse
Settings: IC50 (3 days), CellTiter-Glo; read-out: Ba/F3-FLT3-ITD-D835Y Relative IC50
Procedure: Activity of compounds on FLT3 activating mutations were assessed using Ba/F3 cell lines (mouse pro-B cell line) stably expressing human FLT3-ITD, FLT3-ITD-D835Y or FLT3-ITD-F691L. […] The supernatant collected were concentrated with PEG8000 and used to infect Ba/F3 cells at 1-5 MOI in serum-free media with polybrene. Infected Ba/F3 cells were selected in presence of puromycin, and surviving cells verified by sequencing and/or protein detection assay. Constitutive expression of the activating kinase transforms the Ba/F3 cells into IL-3-independent growth allowing them to be cultured in the absence of IL-3. […] For use in compound testing, cells in exponential growth phase were harvested, counted, and resuspended at the required cell density. Cell viability assays were performed in 96-well assay plates and 90 μL of cell suspension seeded per well. Serial dilutions of the test compounds and assay controls and were freshly prepared for the assay. Nine-point 3× serial dilutions were prepared in 100% DMSO (400× stock) and subsequently diluted in cell culture media to obtain 10× stocks. Ten microliters of the 10× stock serial dilutions were added to the appropriate wells (triplicate wells per condition) in the assay plate. […] Assay plates were incubated for 3 days in at 37° C. in a humidified incubator with 5% CO2.
Inhibition rate (IR) of the tested compounds was determined by the following formula: IR (%)=(1−(RLU compound−RLU blank)/(RLU control−RLU blank))*100%. The inhibitions of different dose of compound were calculated in Excel file, and the dose responses were analysed using GraphPad Prism to evaluate related parameters, such as Bottom, Top and IC50. For the IC50 analysis by GraphPad Prism, the equation below was used to fit curve: Y=Bottom+(Top−Bottom)/(1+10^((LogIC50−X)*HillSlope))

Compound | GI50
CCc1nc(Nc2cccc([C@@H](C)CNC(=O)CN(C)C(=O)/C=C/CN3CCC3)c2)c(C(N)=O)nc1CC [Compound 508, (R, E)-3-((3-(1-(2-(4-(azetidin-1-yl)-N-methylbut-2-enamido)acetamido)propan-2-yl)phenyl)amino)-5,6-diethylpyrazine-2-carboxamide] | 10 to 100 nM
CCc1nc(C(N)=O)c(Nc2cccc([C@@H](C)CNC(=O)CN(C)C(=O)/C=C/CN3CCC3)c2)nc1C1CC1 [Compound 506, (R,E)-3-((3-(1-(2-(4-(azetidin-1-yl)-N-methylbut-2-enamido)acetamido)propan-2-yl)phenyl)amino)-5-cyclopropyl-6-ethylpyrazine-2-carboxamide] | 10 to 100 nM
CCOc1nc(Nc2cccc(CCNC(=O)CN(C)C(=O)/C=C/CN3CCC3)c2)c(C(N)=O)nc1CC [Compound 602, (E)-3-((3-(2-(2-(4-(azetidin-1-yl)-N-methylbut-2-enamido)acetamido)ethyl)phenyl)amino)-5-ethoxy-6-ethylpyrazine-2-carboxamide] | 10 to 100 nM
CCc1nc(C(N)=O)c(Nc2cccc(CCNC(=O)CN(C)C(=O)/C=C/CN(C)C)c2)nc1N(C)CC [Compound 252, (E)-3-((3-(2-(2-(4-(dimethylamino)-N-methylbut-2-enamido)acetamido)ethyl)phenyl)amino)-6-ethyl-5-(ethyl (methyl)amino) pyrazine-2-carboxamide] | 1 to 10 nM
CCc1nc(C(N)=O)c(Nc2cc(F)cc(CCNC(=O)CN(C)C(=O)/C=C/CN3CCC3)c2)nc1C1CC1 [Compound 516, (E)-3-((3-(2-(2-(4-(azetidin-1-yl)-N-methylbut-2-enamido)acetamido)ethyl)-5-fluorophenyl)amino)-5-cyclopropyl-6-ethylpyrazine-2-carboxamide] | 10 to 100 nM
Cc1nc(C(N)=O)c(Nc2cccc(CCNC(=O)[C@H](C)N(C)C(=O)/C=C/CN(C)C)c2)nc1N(C)C(C)C [Compound 232, (S, E)-3-((3-(2-(2-(4-(dimethylamino)-N-methylbut-2-enamido)propanamido)ethyl)phenyl)amino)-5-(isopropyl (methyl)amino)-6-methylpyrazine-2-carboxamide] | 10 to 100 nM
CCc1nc(C(N)=O)c(Nc2ccnc(CCNC(=O)[C@H](C)N(C)C(=O)/C=C/CN(C)C)c2)nc1N(C)C(C)C [Compound 605, (S, E)-3-((2-(2-(2-(4-(dimethylamino)-N-methylbut-2-enamido)propanamido)ethyl)pyridin-4-yl)amino)-6-ethyl-5-(isopropyl (methyl)amino) pyrazine-2-carboxamide] | 10 to 100 nM
CCc1nc(C(N)=O)c(Nc2cccc(CCNC(=O)CN(C)C(=O)/C=C/CN3CCC3)c2)nc1N(C)CC [Compound 516A, (E)-3-((3-(2-(2-(4-(azetidin-1-yl)-N-methylbut-2-enamido)acetamido)ethyl)phenyl)amino)-6-ethyl-5-(ethyl(methyl)amino) pyrazine-2-carboxamide] | 10 to 100 nM
CCc1nc(C(N)=O)c(Nc2cccc(CCNC(=O)[C@H](C)N(C)C(=O)/C=C/CN(C)C)c2)nc1N(C)C(C)C [Compound 204, (S,E)-3-((3-(2-(2-(4-(dimethylamino)-N-methylbut-2-enamido)propanamido)ethyl)phenyl)amino)-6-ethyl-5-(isopropyl(methyl)amino)pyrazine-2-carboxamide] | 1 to 10 nM
CCc1nc(C(N)=O)c(Nc2ccnc(CCNC(=O)[C@H](C)N(C)C(=O)/C=C/CN(C)C)c2)nc1C1CC1 [Compound 310, (S,E)-5-cyclopropyl-3-((2-(2-(2-(4-(dimethylamino)-N-methylbut-2-enamido)propanamido)ethyl)pyridin-4-yl)amino)-6-ethylpyrazine-2-carboxamide] | 10 to 100 nM
CCc1nc(C(N)=O)c(Nc2cccc(CCNC(=O)[C@H](C)N(C)C(=O)/C=C/CNC)c2)nc1N(C)C(C)C [Compound 307, (S,E)-6-ethyl-5-(isopropyl(methyl)amino)-3-((3-(2-(2-(N-methyl-4-(methylamino)but-2-enamido)propanamido)ethyl)phenyl)amino)pyrazine-2-carboxamide] | 10 to 100 nM
CCc1nc(C(N)=O)c(Nc2cccc([C@@H](C)CNC(=O)CN(C)C(=O)/C=C/CN(C)C)c2)nc1C1CC1 [Compound 504, (R,E)-5-cyclopropyl-3-((3-(1-(2-(4-(dimethylamino)-N-methylbut-2-enamido)acetamido)propan-2-yl)phenyl)amino)-6-ethylpyrazine-2-carboxamide] | 10 to 100 nM
CCc1nc(C(N)=O)c(Nc2cccc(CCNC(=O)CN(C)C(=O)/C=C/CN(C)C)c2)nc1C1CC1 [Compound 219, (E)-5-cyclopropyl-3-((3-(2-(2-(4-(dimethylamino)-N-methylbut-2-enamido)acetamido)ethyl)phenyl)amino)-6-ethylpyrazine-2-carboxamide] | 10 to 100 nM
CCCc1nc(Nc2cccc([C@@H](C)CNC(=O)CN(C)C(=O)/C=C/CN3CCC3)c2)c(C(N)=O)nc1CC [Compound 507, (R,E)-3-((3-(1-(2-(4-(azetidin-1-yl)-N-methylbut-2-enamido)acetamido)propan-2-yl)phenyl)amino)-6-ethyl-5-propylpyrazine-2-carboxamide] | 10 to 100 nM
CCc1nc(C(N)=O)c(Nc2cccc([C@@H](C)CNC(=O)CN(C)C(=O)/C=C/CN3CCC3)c2)nc1N(C)CC [Compound 518, (R,E)-3-((3-(1-(2-(4-(azetidin-1-yl)-N-methylbut-2-enamido)acetamido)propan-2-yl)phenyl)amino)-6-ethyl-5-(ethyl(methyl)amino)pyrazine-2-carboxamide] | 10 to 100 nM
CCc1nc(C(N)=O)c(Nc2ccc(N3CCC(N4CCN(C)CC4)CC3)c(OC)c2)nc1NC1CCOCC1 [Gilteritinib, gilteritinib, reference compound] | 10 to 100 nM
CCc1nc(C(N)=O)c(Nc2cccc(CCNC(=O)[C@H](C)N(C)C(=O)/C=C/CN(C)C)c2)nc1NC(C)C [Compound 205, (S,E)-3-((3-(2-(2-(4-(dimethylamino)-N-methylbut-2-enamido)propanamido)ethyl)phenyl)amino)-6-ethyl-5-(isopropylamino)pyrazine-2-carboxamide] | 1 to 10 nM
CCc1nc(C(N)=O)c(Nc2cccc(CCNC(=O)CN(C)C(=O)/C=C/CN3CCC3)c2)nc1OC(C)C [Compound 603, (E)-3-((3-(2-(2-(4-(azetidin-1-yl)-N-methylbut-2-enamido)acetamido)ethyl)phenyl)amino)-6-ethyl-5-isopropoxypyrazine-2-carboxamide] | 10 to 100 nM
Cc1nc(C(N)=O)c(Nc2cccc(CCNC(=O)CN(C)C(=O)/C=C/CN(C)C)c2)nc1N(C)C(C)C [Compound 250, (E)-3-((3-(2-(2-(4-(dimethylamino)-N-methylbut-2-enamido)acetamido)ethyl)phenyl)amino)-5-(isopropyl(methyl)amino)-6-methylpyrazine-2-carboxamide] | 10 to 100 nM
